Source: patent US8318184B2, “MGLU2 agonists” (Eli Lilly and Company, priority 2009, dated 2012)

Target: T1, hPepT1 (Homo sapiens, UniProt P46059)
T1 construct: expressed in transfected cells; host or cells: HeLa cells (ATCC), transient transfection with FuGene6
T1 sequence (P46059 1-708): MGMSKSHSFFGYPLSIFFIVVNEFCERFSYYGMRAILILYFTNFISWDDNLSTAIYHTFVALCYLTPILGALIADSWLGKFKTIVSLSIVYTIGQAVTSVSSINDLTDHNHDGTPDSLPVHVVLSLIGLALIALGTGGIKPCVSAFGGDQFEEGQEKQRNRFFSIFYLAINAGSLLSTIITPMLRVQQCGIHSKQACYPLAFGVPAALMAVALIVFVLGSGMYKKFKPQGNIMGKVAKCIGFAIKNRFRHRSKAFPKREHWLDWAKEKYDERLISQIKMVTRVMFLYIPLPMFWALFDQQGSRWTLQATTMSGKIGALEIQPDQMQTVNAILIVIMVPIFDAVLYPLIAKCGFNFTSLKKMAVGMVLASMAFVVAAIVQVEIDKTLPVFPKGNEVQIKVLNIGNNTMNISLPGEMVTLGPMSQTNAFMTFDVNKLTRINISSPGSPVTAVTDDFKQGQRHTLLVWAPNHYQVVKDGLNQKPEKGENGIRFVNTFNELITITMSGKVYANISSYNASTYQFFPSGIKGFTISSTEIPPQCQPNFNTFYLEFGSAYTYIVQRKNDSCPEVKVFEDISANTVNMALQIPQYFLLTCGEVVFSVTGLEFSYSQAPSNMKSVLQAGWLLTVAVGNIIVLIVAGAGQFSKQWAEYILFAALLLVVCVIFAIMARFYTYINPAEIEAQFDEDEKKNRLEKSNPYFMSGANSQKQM
Test: In Vitro PepT1 GlySar Inhibition Screen and IC50 Determination
Type: cell-based
Protocol: PepT1 assays are established to examine the ability of the amino acid prodrug compounds to interact with the intestinal absorption transporter PepT1.
HeLa cells, […], (American Type Culture Collection) are grown in Hyclone Medium (Invitrogen, Cat# SH30243) containing 10% fetal bovine serum (FBS), 0.1 mM non essential amino acids (NEAA), and 100 units/mL penicillin with 100 μg/mL streptomycin at 37° C. in a 5% CO2 humidified atmosphere. The cell line is used for up to 40 passages and then discarded. Frozen cells in 1 ml vials are thawed in water bath for 1-2 minutes and added to 5 mL of cell medium at 37° C. Each of the T-flasks is provided with 8.5 mL of the fresh medium and 1.5 mL of the cell stock. Cells are passaged twice during a week. This is achieved by rinsing the flasks with 10 mL of phosphate buffered saline-ethylene diaminetetra acetic acid (PBS-EDTA), adding 2 mL of trypsin for 2-5 minutes, to detach the cells, and adding 8 mL of fresh medium to inhibit further activity of trypsin. Each new flask receives a combination of 8.5 mL of fresh medium and 1.5 mL of cell stock, in order to obtain 1:6 cell dilution. Cells are incubated at 37° C., until ready for the uptake study.
Cells that are 70-80% confluent in the T-flasks are plated 1 day prior to the transfection procedure. The flask with the cell stock is treated with PBS-EDTA and trypsin to detach the cells, and transfection medium is used from this point. Transfection medium consists of Dulbecco's Modified Eagle Medium (DMEM)+NEAA. To each well, 0.5 mL of the cell mixture is added (1.3×10^5 is the desired cell concentration) and the cells are incubated at 37° C. overnight. Twenty four hours before the assay, cells are transfected with PEPT1. Transfection mixture is prepared by mixing 600 μL of serum free transfection medium, 18 μL of FuGene6 (Roche Diagnostics), and 11 μg of the PepT1 DNA. The transfection reagent-DNA complex is incubated for 20 minutes and 24 μL of the reagent-DNA complex is added to each well.
J. Pharm. Exper Ther. 310:437-445). […] Uptake media consists of 140 mM NaCl, 5.4 mM KCl, 1.8 mM CaCl2, 0.8 mM MgSO4, 5 mM Glucose, 25 mM tris(hydroxymethyl)aminomethane buffer (TRIS). The solution is then brought to pH 6.0 using 2-(N-morpholino)ethanesulfonic acid. The incubation volume is 500 μL and is performed at room temperature for 3 minutes. To stop the uptake at the conclusion of the incubation time, the uptake media is aspirated off of the cell monolayer and 500 μL of ice cold PBS added to the well. The cells are washed 3 times with 500 μL of room temperature PBS without Ca^+2 and Mg^+2. The cells are then lysed with 300 μL of 1% Triton X100 H2O solution. […] A no inhibitor control is established and the percent inhibition of each prodrug is calculated with respect to this control.
The incubation and sampling procedures are exactly the same as the PepT1 screen described above. […]

inhibition at 5000 µM (5 mM, pH 6.0, PepT1 transiently transfected HeLa cells, read-out: hPepT1 [3H]Gly-Sar uptake inhibition at 5 mM): 38%
IC50 (0.0625 to 25 mM, PepT1 transfected HeLa cells, read-out: hPepT1 [3H]Gly-Sar uptake inhibition IC50): 1840 µM
Compound: C[C@H](N)C(=O)N[C@@]1(C(=O)O)C[C@@H](Sc2nnc[nH]2)[C@H]2[C@H](C(=O)O)[C@H]21.Cl [Example 2, (1R,2S,4R,5R,6R)-2-[[(2S)-2-Aminopropanoyl]amino]-4-(1H-1,2,4-triazol-3-ylsulfanyl)bicyclo[3.1.0]hexane-2,6-dicarboxylic acid hydrochloride]
